From patent US10106571B2, “HCV polymerase inhibitors” (priority 2013, dated 2018)
Where two headings read alike, the source gives them in different places.

Columns and labels:
Type in all cases: cell-based
[1] = system: HCV type 1b replicon (Huh-7 luc/neo, Huh-Luc); test: Replicon assay, Huh-Luc cells with HCV type 1b replicon (stable), luciferase readout
Description: The compounds of formula I may be examined for activity in the inhibition of HCV RNA replication in a cellular assay aimed at identifying compounds that inhibit a HCV functional cellular replicating cell line, also known as HCV replicons. A suitable cellular assay is based on a bicistronic expression construct, as described by Lohmann et al. (1999), Science vol. 285 pp. 110-113 with modifications described by Krieger et al. (2001), Journal of Virology 75: 4614-4624, in a multi-target screening strategy.
The assay utilizes the stably transfected cell line Huh-7 luc/neo (hereafter referred to as Huh-Luc). This cell line harbors an RNA encoding a bicistronic expression construct comprising the wild type NS3-NS5B regions of HCV type 1b translated from an Internal Ribosome Entry Site (IRES) from encephalomyocarditis virus (EMCV), preceded by a reporter portion (FfL-luciferase), and a selectable marker portion (neo^R, neomycine phosphotransferase). The construct is bordered by 5′ and 3′ NTRs (non-translated regions) from HCV type 1b. Continued culture of the replicon cells in the presence of G418 (neo^R) is dependent on the replication of the HCV RNA. The stably transfected replicon cells that express HCV RNA, which replicates autonomously and to high levels, encoding inter alia luciferase, are used for screening the antiviral compounds.
The replicon cells are plated in 384 well plates in the presence of the test and control compounds which are added in various concentrations. Following an incubation of three days, HCV replication is measured by assaying luciferase activity (using standard luciferase assay substrates and reagents and a Perkin Elmer ViewLux™ ultraHTS microplate imager). Replicon cells in the control cultures have high luciferase expression in the absence of any inhibitor. The inhibitory activity of a compound on luciferase activity is monitored on the Huh-Luc cells, enabling a dose-response curve for each test compound. EC50 values are then calculated, which value represents the amount of the compound required to decrease the level of detected luciferase activity by 50%, or more specifically, the ability of the genetically linked HCV replicon RNA to replicate.

HCV GT3a = test: Genotype 3a transient replicon assay (Kylefjord et al.); details: Hepatitis C virus
Description: (§1) The antiviral activity of commercially available sofosbuvir and the compound of Example 2 were compared in a genotype 3a transient replicon assay described in Kylefjord et al., J Virol. Methods 2014 195:156-63.
(§2) The compound of Example 2 was further evaluated to assess the antiviral activity against genotypes 1-6 of HCV, both wild type and a number of clinically relevant mutant strains. The result of the evaluation together with the average EC50 of the genotypes and the corresponding values for sofosbuvir are summarised in Tables 2 and 3.

HCV GT3a S282T = test: Genotype 3a transient replicon bearing the S282T mutation; details: for EC50: Hepatitis C virus; for FC vs WT, HCV GT3a* S282T: fold change of EC50 vs wild type
Method: as §1
(§3) Similarly, the L159F/L320F double mutant generated by exposure to the nucleoside mericitabine and conferring cross resistance to sofosbuvir (Tong et al 2013 J. Infect. Dis., 209 (5), 668-75) was prepared in a genotype 3a transient replicon as described above in Kylefjord et al. ibid.
as §2

HCV GT3a L159F/L320F = test: Genotype 3a transient replicon, L159F/L320F double mutant; details: for EC50: Hepatitis C virus; for FC vs WT, HCV GT3a* L159F/L320F: fold change of EC50 vs wild type
Method: as §3, §2

HCV GT1b (transient) = HCV GT1b (transient) replicon; details: Hepatitis C virus, read-out: EC50 HCV GT1b (transient)
Description: as §2

HCV GT1a = HCV GT1a chimeric replicon; details: Hepatitis C virus, read-out: EC50 HCV GT1a*
Description: as §2

HCV GT2a replicon = test: HCV GT2a replicon; details: Hepatitis C virus, read-out: EC50 HCV GT2a replicon
Description: as §2

HCV GT2a virus = test: HCV GT2a virus; details: Hepatitis C virus, wild type, geometric mean
Description: as §2

HCV GT4a = HCV GT4a chimeric replicon; details: Hepatitis C virus, read-out: EC50 HCV GT4a*
Description: as §2

HCV GT5a = HCV GT5a chimeric replicon; details: Hepatitis C virus, read-out: EC50 HCV GT5a*
Description: as §2

HCV GT6a = HCV GT6a chimeric replicon; details: Hepatitis C virus, read-out: EC50 HCV GT6a*
Description: as §2

[2] = system: genotypes 1-6 of HCV, wild type; test: Average over wild type HCV genotype assays (Table 2); details: for EC50: Hepatitis C virus, arithmetic mean +/- SEM; for potency increase vs sofosbuvir: from AVG EC50
Description: as §2

HCV GT1b S282T = HCV GT1b S282T mutant replicon; details: for EC50: Hepatitis C virus, GT1B, read-out: EC50 HCV GT1b S282T; for FC vs WT, HCV GT1b S282T: fold change of EC50 vs wild type
Description: as §2

HCV GT1b L159F/L320F = HCV GT1b L159F/L320F mutant replicon; details: for EC50: Hepatitis C virus, GT1B, read-out: EC50 HCV GT1b L159F/L320F; for FC vs WT, HCV GT1b L159F/L320F: fold change of EC50 vs wild type
Description: as §2

HCV GT1a S282T = HCV GT1a S282T chimeric mutant replicon; details: for EC50: Hepatitis C virus, GT1A, read-out: EC50 HCV GT1a* S282T; for FC vs WT, HCV GT1a* S282T: fold change of EC50 vs wild type
Description: as §2

HCV mutant strains = test: Average over HCV mutant assays (Table 3); details: for EC50: Hepatitis C virus, read-out: AVG EC50; for potency increase vs sofosbuvir: mutant assays, from AVG EC50
Description: as §2

[3] = Hepatitis C virus, GT1B, Huh-7, wild type, geometric mean, read-out: EC50 HCV GT1b (stable)
[4] = read-out: EC50 against genotype 3a
[5] = GT3A, read-out: EC50 HCV GT3a* S282T
[6] = read-out: EC50, genotype 3a S282T
[7] = GT3A, read-out: EC50 HCV GT3a* L159F/L320F
[8] = read-out: EC50, genotype 3a L159F/L320F double mutant

| SMILES | EC50 [1, 3] | EC50 (HCV GT3a; GT3A, read-out: EC50 HCV GT3a*) | EC50 (HCV GT3a; [4]) | EC50 (HCV GT3a S282T; [5]) | EC50 (HCV GT3a S282T; [6]) | FC vs WT, HCV GT3a* S282T (HCV GT3a S282T) | EC50 (HCV GT3a L159F/L320F; [7]) | EC50 (HCV GT3a L159F/L320F; [8]) | FC vs WT, HCV GT3a* L159F/L320F (HCV GT3a L159F/L320F) | EC50 (HCV GT1b (transient)) | EC50 (HCV GT1a) | EC50 (HCV GT2a replicon) | EC50 (HCV GT2a virus) | EC50 (HCV GT4a) | EC50 (HCV GT5a) | EC50 (HCV GT6a) | EC50 [2] | potency increase vs sofosbuvir [2] | EC50 (HCV GT1b S282T) | FC vs WT, HCV GT1b S282T (HCV GT1b S282T) | also measured |
| --- | --- | --- | --- | --- | --- | --- | --- | --- | --- | --- | --- | --- | --- | --- | --- | --- | --- | --- | --- | --- | --- |
| CC(C)OC(=O)[C@H](C)NP(=O)(OC[C@H]1O[C@@H](n2ccc(=O)[nH]c2=O)[C@@](F)(Cl)[C@@H]1O)Oc1ccccc1 (stereo partly drawn) [Example 2, (2S)-isopropyl 2-(((((2R,3R,4S,5R)-4-chloro-5-(2,4-dioxo-3,4-dihydropyrimidin-1(2H)-yl)-4-fluoro-3-hydroxytetrahydrofuran-2-yl)methoxy)(phenoxy)phosphoryl)amino)propanoate] | 45 nM | 46 nM | 72 nM | 122 nM | 130 nM | 2.7 | 62 nM | 62 nM | 1.3 | 44 nM | 50 nM | 23 nM | 17 nM | 59 nM | 44 nM | 58 nM | 43 nM | 2.7 | 298 nM | 6.8 | EC50 ([1]; Huh-Luc HCV 1b replicon, three days incubation, luciferase activity, read-out: EC50): 55 nM; EC50 (HCV GT1b L159F/L320F): 70 nM; FC vs WT, HCV GT1b L159F/L320F (HCV GT1b L159F/L320F): 1.6; EC50 (HCV GT1a S282T): 301 nM; FC vs WT, HCV GT1a* S282T (HCV GT1a S282T): 6.0; EC50 (HCV mutant strains): 171 nM; potency increase vs sofosbuvir (HCV mutant strains): 3.1 |
| CC(C)OC(=O)[C@H](C)N[P@](=O)(OC[C@H]1O[C@@H](n2ccc(=O)[nH]c2=O)[C@](C)(F)[C@@H]1O)Oc1ccccc1 [sofosbuvir, reference compound] | 98 nM | 129 nM | 230 nM | 521 nM | 480 nM | 4.0 | 190 nM | 190 nM | 1.5 | 81 nM | 131 nM | 48 nM | 54 nM | 218 nM | 114 nM | 179 nM | 117 nM | 1.0 | 741 nM | 8.8 | EC50 (HCV GT1b L159F/L320F): 199 nM; FC vs WT, HCV GT1b L159F/L320F (HCV GT1b L159F/L320F): 2.5; EC50 (HCV GT1a S282T): 1010 nM; FC vs WT, HCV GT1a* S282T (HCV GT1a S282T): 7.7; EC50 (HCV mutant strains): 532 nM; potency increase vs sofosbuvir (HCV mutant strains): 1.0 |
